# According to ChEMBL document CHEMBL1201862, “PubChem BioAssay data set” (2004):
# Calls of active or inactive are those of the source.
# Assays:
# [1] = target: Glucose-6-phosphate 1-dehydrogenase (Homo sapiens, UniProt P11413); test: human G6PD enzyme inhibitors, dose response, selectivity assay for P. falciparum G6PD inhibitor project, biochemical, fluorescence (AID 504792); format: functional
# P388/ADR = test: cells; format: functional; conditions: Mus musculus
# P388 = test: cells; format: functional; conditions: Mus musculus
# SN12K1 = test: cells; format: functional; conditions: Homo sapiens
# [2] = inhibitors of HIV Env-driven cell fusion, dose response, cherry-pick (AID 652057); format: functional, cell-based
# [3] = control 3'UTR Renilla luciferase suppression, dose response, counter-screen for Shn3 inhibitor project, cell-based, Clone20-Shn3RL, cherry-picked (AID 624133); format: functional
# [4] = HepG2 cell cytotoxicity, dose response, cytotoxicity control for Shn3 inhibitor project, CellTiter-Glo, cherry-picked (AID 624134); format: functional, cell-based
# [5] = inhibitors of clade B AD8 Env fusion, dose response, cell-based, cherry-pick (AID 652062); format: functional;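 also: luciferase signal from cell-cell fusion driven by HIV-1 clade B AD8 Env; potency is for inhibitors of fusion seen as a drop in luminescence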
# [6] = CRF-BP/CRF-R2 complex antagonists, dose response, cell-based, uHTS hits, 384-well (AID 651639); format: functional, Homo sapiens; conditions: read-out: IC50_Mean
# [7] = target: T1, Heat shock factor protein 1 (Mus musculus, UniProt P38532); test: HSF1 potentiators in luciferase reporter cells, confirmation, cell-based, NIH3T3, luminescence, dose retest (AID 435004); format: functional;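 also: stress induced by proteasome inhibitor MG132 added 30 min after compound; luciferase reporter driven by HSF1 response element in NIH3T3 cells; actives raise luminescence as potentiators of the MG132 stress response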
# T1 sequence (P38532 whole entry): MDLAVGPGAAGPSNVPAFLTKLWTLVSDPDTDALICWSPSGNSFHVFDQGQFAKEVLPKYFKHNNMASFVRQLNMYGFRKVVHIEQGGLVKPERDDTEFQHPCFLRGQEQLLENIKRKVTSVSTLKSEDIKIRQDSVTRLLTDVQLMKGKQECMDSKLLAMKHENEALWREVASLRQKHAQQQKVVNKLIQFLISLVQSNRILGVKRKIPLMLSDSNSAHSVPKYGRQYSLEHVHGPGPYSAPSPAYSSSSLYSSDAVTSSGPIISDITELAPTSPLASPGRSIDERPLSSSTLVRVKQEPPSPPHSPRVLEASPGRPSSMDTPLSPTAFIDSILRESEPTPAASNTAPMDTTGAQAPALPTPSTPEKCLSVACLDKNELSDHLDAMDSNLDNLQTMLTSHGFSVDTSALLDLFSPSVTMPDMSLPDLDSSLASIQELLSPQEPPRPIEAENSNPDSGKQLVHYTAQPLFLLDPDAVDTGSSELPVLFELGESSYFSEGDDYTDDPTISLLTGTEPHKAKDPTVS
# [8] = target: T2, Corticotropin-releasing factor receptor 2/Corticotropin-releasing factor-binding protein (Homo sapiens, UniProt P24387+Q13324); test: activators of CRF receptor 2 with binding protein – uHTS hits, confirmation (AID 602473); format: functional; conditions: read-out: EC50_Mean
# T2 sequence (Q13324 whole entry): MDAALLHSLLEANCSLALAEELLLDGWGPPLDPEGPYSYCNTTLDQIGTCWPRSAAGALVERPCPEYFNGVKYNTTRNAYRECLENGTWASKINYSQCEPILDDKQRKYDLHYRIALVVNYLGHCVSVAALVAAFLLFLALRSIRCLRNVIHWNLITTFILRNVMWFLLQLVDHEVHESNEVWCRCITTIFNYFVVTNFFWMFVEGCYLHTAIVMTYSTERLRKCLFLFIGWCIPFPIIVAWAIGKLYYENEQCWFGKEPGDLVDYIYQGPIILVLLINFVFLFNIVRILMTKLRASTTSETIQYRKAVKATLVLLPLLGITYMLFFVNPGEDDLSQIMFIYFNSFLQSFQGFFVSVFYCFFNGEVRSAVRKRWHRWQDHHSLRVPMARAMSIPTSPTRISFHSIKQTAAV
# T2 sequence (P24387 whole entry): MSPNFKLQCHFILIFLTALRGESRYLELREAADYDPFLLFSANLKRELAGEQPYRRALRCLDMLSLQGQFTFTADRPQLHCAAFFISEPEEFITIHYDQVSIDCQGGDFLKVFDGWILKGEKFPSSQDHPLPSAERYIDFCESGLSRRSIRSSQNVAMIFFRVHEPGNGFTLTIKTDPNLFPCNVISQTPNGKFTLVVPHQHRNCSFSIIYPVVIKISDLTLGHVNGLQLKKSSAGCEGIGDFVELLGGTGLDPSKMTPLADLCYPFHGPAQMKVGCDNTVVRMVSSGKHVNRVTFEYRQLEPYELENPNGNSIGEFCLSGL
# [9] = target: T2, Corticotropin-releasing factor receptor 2/Corticotropin-releasing factor-binding protein; test: Dose Response confirmation of uHTS hits for small molecule antagonists of the CRF-binding protein and CRF-R2 receptor complex.; format: functional; conditions: read-out: IC50_Mean
# cells = format: functional
# [10] = target: T3, Calpain-2 catalytic subunit (Sus scrofa, UniProt P43367); test: pig calpain II inhibitor potency, dose response, biochemical, fluorogenic peptide substrate (AID 1420); format: functional
# T3 sequence (P43367 whole entry): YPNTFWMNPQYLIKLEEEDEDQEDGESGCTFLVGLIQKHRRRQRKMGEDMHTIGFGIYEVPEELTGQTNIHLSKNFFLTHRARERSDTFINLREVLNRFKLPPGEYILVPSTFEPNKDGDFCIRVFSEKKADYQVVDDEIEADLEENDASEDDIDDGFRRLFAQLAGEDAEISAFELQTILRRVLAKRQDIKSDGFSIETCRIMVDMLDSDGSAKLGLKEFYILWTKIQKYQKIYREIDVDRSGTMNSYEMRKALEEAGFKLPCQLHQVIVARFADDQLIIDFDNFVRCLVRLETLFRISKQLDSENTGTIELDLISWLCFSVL
# [11] = target: T4, Carboxy-terminal domain RNA polymerase II polypeptide A small phosphatase 1 (Homo sapiens, UniProt Q9GZU7); test: inhibitors of CTDSP1, concentration-response testing, biochemical assay, absorbance-based, actives from ultra-high-throughput screening (AID 540297); format: functional
# T4 sequence (Q9GZU7 whole entry): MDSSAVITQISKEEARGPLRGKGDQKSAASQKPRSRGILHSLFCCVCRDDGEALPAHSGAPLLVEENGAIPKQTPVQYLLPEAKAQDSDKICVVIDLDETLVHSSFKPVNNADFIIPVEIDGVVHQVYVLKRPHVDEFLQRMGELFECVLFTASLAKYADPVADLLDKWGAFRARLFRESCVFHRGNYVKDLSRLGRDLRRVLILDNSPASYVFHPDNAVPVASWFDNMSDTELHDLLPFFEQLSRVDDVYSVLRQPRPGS
# Large T antigen = Large T antigen (Simian virus 40, UniProt P03070); format: functional, Betapolyomavirus macacae;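 also: Confirmatory-stage PubChem screen for compounds that inhibit SV40 T antigen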
# Large T antigen, sequence (P03070 whole entry): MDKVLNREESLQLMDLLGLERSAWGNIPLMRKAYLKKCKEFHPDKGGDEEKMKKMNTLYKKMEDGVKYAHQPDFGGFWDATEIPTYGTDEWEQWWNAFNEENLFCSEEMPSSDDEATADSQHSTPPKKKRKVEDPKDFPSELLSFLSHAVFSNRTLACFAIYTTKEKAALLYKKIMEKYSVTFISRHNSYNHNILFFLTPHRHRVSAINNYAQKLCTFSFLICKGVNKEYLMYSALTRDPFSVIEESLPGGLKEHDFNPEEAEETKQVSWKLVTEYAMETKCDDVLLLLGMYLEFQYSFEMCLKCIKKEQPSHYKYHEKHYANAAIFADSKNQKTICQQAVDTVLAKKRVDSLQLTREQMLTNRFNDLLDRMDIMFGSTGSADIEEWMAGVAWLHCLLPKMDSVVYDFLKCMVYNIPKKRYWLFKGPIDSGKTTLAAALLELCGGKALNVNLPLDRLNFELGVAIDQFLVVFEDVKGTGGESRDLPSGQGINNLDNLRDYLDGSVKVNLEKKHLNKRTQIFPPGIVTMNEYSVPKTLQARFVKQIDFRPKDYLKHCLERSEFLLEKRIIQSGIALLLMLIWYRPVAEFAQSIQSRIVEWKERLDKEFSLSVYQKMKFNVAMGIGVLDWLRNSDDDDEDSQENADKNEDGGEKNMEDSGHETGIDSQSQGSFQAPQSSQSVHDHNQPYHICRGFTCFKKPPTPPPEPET
# Genome polyprotein = Genome polyprotein (dengue virus type 2, UniProt P29990); test: Dengue-2 NS5 methyltransferase inhibitors, primary screen, biochemical, confirmation dose response (AID 588689); format: functional
# Genome polyprotein, sequence (P29990 2492-3391 limits assumed): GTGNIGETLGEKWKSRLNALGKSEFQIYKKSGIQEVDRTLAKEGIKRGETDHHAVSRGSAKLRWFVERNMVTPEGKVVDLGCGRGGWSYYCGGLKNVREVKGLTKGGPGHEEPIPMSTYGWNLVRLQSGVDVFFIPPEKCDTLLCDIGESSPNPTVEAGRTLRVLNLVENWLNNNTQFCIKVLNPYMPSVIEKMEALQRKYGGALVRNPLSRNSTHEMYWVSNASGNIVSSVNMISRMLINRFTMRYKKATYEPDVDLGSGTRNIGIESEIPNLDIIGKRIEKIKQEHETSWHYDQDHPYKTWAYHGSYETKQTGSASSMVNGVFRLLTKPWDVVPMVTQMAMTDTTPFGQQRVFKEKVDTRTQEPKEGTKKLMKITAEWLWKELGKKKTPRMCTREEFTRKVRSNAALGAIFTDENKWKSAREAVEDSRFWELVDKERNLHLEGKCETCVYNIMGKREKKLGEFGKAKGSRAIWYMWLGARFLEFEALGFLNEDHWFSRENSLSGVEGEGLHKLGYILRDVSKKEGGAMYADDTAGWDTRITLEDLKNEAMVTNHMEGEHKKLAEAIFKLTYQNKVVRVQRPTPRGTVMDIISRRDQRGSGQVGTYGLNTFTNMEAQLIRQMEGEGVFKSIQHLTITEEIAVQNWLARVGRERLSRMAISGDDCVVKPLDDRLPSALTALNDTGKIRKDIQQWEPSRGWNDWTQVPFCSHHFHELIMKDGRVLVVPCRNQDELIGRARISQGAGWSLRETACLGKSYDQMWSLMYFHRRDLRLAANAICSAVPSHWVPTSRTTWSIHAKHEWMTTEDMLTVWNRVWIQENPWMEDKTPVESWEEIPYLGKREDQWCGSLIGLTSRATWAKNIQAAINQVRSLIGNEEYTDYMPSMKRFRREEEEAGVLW
# [12] = Shn3 3'UTR reporter inhibitors, dose response, cell-based, Clone20 osteoblasts, firefly luciferase, cherry-picked (AID 624132); format: functional;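 also: firefly luciferase luminescence from reporter carrying the Shn3 3'UTR in osteoblasts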
# [13] = growth suppression of PTEN-null colon cells, dose response, cell-based, HCT116 PTEN knockout (AID 1047); format: functional;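 also: HCT116 colon tumor cells with PTEN knocked out; cells exposed to compound for 60 hours before readout; potency for loss of cell viability measured by luminescence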
# [14] = growth suppression of beta-catenin-knockout colon cells, dose response, cell-based, HCT116, human colon tumor (AID 1045); format: functional;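 also: HCT116 colon tumor cells with beta catenin knocked out; cells exposed to compound for 60 hours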
# [15] = Luminescence Cell-Based Dose Confirmation HTS to Identify Activators of 5'UTR Stem-Loop Driven Alpha-Synuclein mRNA Translation in H4 Neuroglioblastoma Cells. [Related pubchem assays: 1829 (Project Summary), 1814 (Primary HTS)]; format: functional
# H4 = test: Luminescence Cell-Based Dose Response HTS to Identify Activators of 5'UTR Stem-Loop Driven Prion Protein mRNA Translation in H4 Neuroglioblastoma Cells. [Related pubchem assays: 1829 (Project Summary), 1814 (Primary HTS)]; format: functional; conditions: Homo sapiens
# [16] = Luminescence Cell-Based Dose Response HTS to Identify Activators of Luciferase Translation or Activity in H4 […] Cells. [Related pubchem assays: 1829 (Project Summary), 1814 (Primary HTS)]; format: functional
# Glucose-6-phosphate 1-dehydrogenase, sequence (P11413 whole entry): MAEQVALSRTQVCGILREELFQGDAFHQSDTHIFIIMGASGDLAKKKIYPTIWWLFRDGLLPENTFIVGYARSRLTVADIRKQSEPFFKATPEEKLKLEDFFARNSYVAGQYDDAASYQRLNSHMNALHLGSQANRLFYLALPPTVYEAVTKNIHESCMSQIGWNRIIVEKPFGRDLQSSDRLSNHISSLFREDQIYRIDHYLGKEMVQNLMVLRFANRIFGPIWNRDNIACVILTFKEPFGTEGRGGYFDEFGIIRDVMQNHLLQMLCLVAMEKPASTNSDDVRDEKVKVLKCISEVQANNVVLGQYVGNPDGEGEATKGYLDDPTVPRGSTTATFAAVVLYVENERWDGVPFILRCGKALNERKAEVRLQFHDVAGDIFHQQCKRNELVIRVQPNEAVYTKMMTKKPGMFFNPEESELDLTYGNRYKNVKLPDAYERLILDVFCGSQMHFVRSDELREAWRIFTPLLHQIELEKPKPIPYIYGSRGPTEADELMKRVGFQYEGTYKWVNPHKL
smiles,measurement,setting,value
CCOC(=O)c1sc(NC(=O)CSc2nnc(Cc3ccccc3)o2)c(C#N)c1C,IC50,[1],> 80 µM (inactive)
Nc1ccc2c(c1)C1=NNC(=O)CC1C2 (stereo not given),GI50,P388/ADR,> 100 µM (inactive)
same,GI50,P388,> 100 µM (inactive)
same,GI50,SN12K1,> 100 µM (inactive)
Cc1nc2ccccc2c(=O)n1CC(=O)O,GI50,P388/ADR,> 100 µM (inactive)
same,GI50,P388,> 100 µM (inactive)
same,GI50,SN12K1,> 100 µM (inactive)
Cc1ccc(-c2c(C(=O)N/N=C/c3ccsc3)nnn2-c2nonc2N)cc1,IC50,[1],> 80 µM (inactive)
CC(Cl)=CCn1c(NCCc2ccccc2)nc2c1c(=O)n(C)c(=O)n2C,AC50,[2],33.4 µM (active)
same,AC50,[3],0.974 µM (active)
same,AC50,[4],58.8 µM (active)
same,AC50,[5],3.67 µM (active)
NC(Cc1ccc([N+](=O)[O-])cc1)=NOC(=O)c1ccc(Br)cc1,IC50,[6],9.44 µM (active)
O=C(CBr)c1ccc([N+](=O)[O-])c(CS(=O)(=O)c2ccc(Cl)cc2)c1,IC50,[1],> 80 µM (inactive)
same,EC50,[7],31.9 µM (active)
CC1CCCCC1NC(=O)CCCCCn1c(=S)[nH]c2ccsc2c1=O (stereo not given),EC50,[8],> 53 µM (inactive)
same,IC50,[6],> 20 µM (inactive)
same,IC50,[9],< 0.368 µM (active)
CC(=O)O[C@H]1CC[C@@]2(C)[C@H](CC[C@@H]3[C@@H]2CC[C@]2(C)[C@@H](c4ccc(=O)oc4)C[C@H]4O[C@]342)C1,GI50,P388/ADR,40.9 µM (inactive)
same,GI50,P388,11 µM (inactive)
same,GI50,SN12K1,0.426 µM (active)
O=C(O/N=C/c1ccc2c(c1)OCO2)c1ccc([N+](=O)[O-])cc1,IC50,cells,8.31 µM (active)
same,IC50,[10],16 µM (not active)
CN(c1ccccc1)S(=O)(=O)c1ccc(Cl)c(C(=O)OCC(=O)NCc2ccco2)c1,IC50,[11],8.74 µM (active)
COc1ccccc1NC(=O)N[C@@H]1C=C[C@H](CC(=O)NCc2ccc(Cl)c(Cl)c2)O[C@@H]1CO,AC50,[2],14.6 µM (active)
same,AC50,[5],43 µM (active)
C[C@H](C(=O)N(C)C[C@@H]1OCc2ccccc2-c2ccccc2C(=O)N([C@@H](C)CO)C[C@H]1C)c1ccccc1,AC50,[2],1.23 µM (active)
same,AC50,[5],8.04 µM (active)
O=C1NC(=O)C(=Cc2ccc(-c3ccccc3[N+](=O)[O-])o2)C(=O)N1,IC50,[1],> 80 µM (inactive)
same,IC50,Large T antigen,62.2 µM (active)
same,IC50,Genome polyprotein,17.8 µM (active)
CC(C)Cc1csc(NC(=O)c2ccc(Cl)cc2)c1C(=O)O,EC50,[8],25.8 µM (active)
same,IC50,[6],17.8 µM (active)
same,IC50,[9],5.06 µM (active)
CCc1ccc(OCC(=O)NC(N=C(S)Nc2ccc(Cl)cc2)C(Cl)(Cl)Cl)cc1 (stereo not given),AC50,[12],4.96 µM (active)
same,EC50,[13],13.8 µM (active)
same,AC50,[3],26.1 µM (active)
same,EC50,[14],13.6 µM (active)
same,AC50,[4],18.1 µM (active)
Cc1nn(-c2cc(C(F)(F)F)ccc2Cl)c2nc(C(Cl)(Cl)Cl)nc(O)c12,EC50,[8],> 53 µM (inactive)
same,IC50,[6],11.1 µM (active)
same,IC50,[9],5.2 µM (active)
CCOc1ccc(NC(=O)c2ccc(NC(=O)c3ccc(NC(N)=O)cc3)cc2)cc1,IC50,[11],3.89 µM (active)
Nc1nc(N)c2cc(Sc3cccc(C(F)(F)F)c3)ccc2n1 [WR-159412],AC50,[12],4.87 µM (active)
same,AC50,[3],19.7 µM (active)
same,AC50,[4],2.34 µM (active)
CCc1c(CNc2ccc(C(=O)NC(CC(=O)O)C(=O)O)cc2)ccc2nc(N)nc(N)c12 (stereo not given),GI50,P388/ADR,0.0179 µM (active)
same,GI50,P388,< 0.0144 µM (active)
same,GI50,SN12K1,< 0.0202 µM (active)
CNC(=O)c1cccc2c(Nc3ccc(NS(C)(=O)=O)cc3OC)c3cccc(C)c3nc12,GI50,P388/ADR,0.0488 µM (active)
same,GI50,P388,< 0.01 µM (active)
same,GI50,SN12K1,< 0.01 µM (active)
CCCn1c(O)nnc1SCc1nc2ccccc2s1,EC50,[15],3.71 µM (active)
same,IC50,[10],0.803 µM (not active)
same,EC50,H4,37.1 µM (active)
same,EC50,[16],22.7 µM (active)
C[C@H](NC(N)=O)C(=O)Nc1ccc(N2CCOCC2)c(S(=O)(=O)Nc2ccc(Cl)cc2)c1,IC50,[1],> 80 µM (inactive)
C=C1CC(OC)(C(OC)C(=O)N[C@H]2OCO[C@H]3C2O[C@H](C[C@@H](COC)OC)C(C)(C)C3OC)O[C@H](C)[C@@H]1C (stereo not given in full),GI50,P388/ADR,0.57 µM (active)
same,GI50,P388,0.147 µM (active)
same,GI50,SN12K1,1.06 µM (active)
CCCCn1c(CN2CCN(c3ccc(F)cc3)CC2)nc2c1c(=O)n(C)c(=O)n2C,AC50,[12],2.73 µM (active)
same,AC50,[3],23 µM (active)
same,AC50,[4],5.36 µM (active)
O=C(C[C@@H]1CC[C@H]2[C@@H](COC[C@H](O)CN2Cc2cccc(C(F)(F)F)c2)O1)NCc1ccc(Cl)cc1,AC50,[2],4.85 µM (active)
same,AC50,[5],10.9 µM (active)
